Results taken from US11497740B2, “Use of Jumonji C demethylase inhibitors for the treatment and prevention of chemotherapy resistance and radioresistance in cancer” (THE BOARD OF REGENTS OF THE UNIVERSITY OF TEXAS SYSTEM, priority 2016, dated 2022).

Experiments:
[1] = tested on: H1299 Parental xenografts; details: for final tumor burden (tumor weights) of combination / tumor growth inhibition of combination: combination with paclitaxel+carboplatin chemotherapy
Protocol: (§1) Animals were housed under standard, sterile conditions at UTSW animal facility. All experiments were carried out under approved IACUC protocols and followed UTSW animal care procedures. For tumor growth rate studies and docetaxel+cisplatin drug response comparisons, 6-8 week old female NOD/SCID mice were used. For all subsequent in vivo drug response studies, 6 week old female athymic nude mice were used (Charles River Labs, Jackson Labs). Experimental details are provided in supplemental information.
(§2) Parental and resistant NSCLC cell lines (1×10^6 cells in PBS or RPMI for H1299; 5×10^6 cells in PBS/matrigel for H1355 and HCC4017) were injected subcutaneously into the right flank of mice. Tumor growth was monitored by caliper measurements and tumor volume was calculated by 0.5×length×width^2). Treatment was started when tumors reached ˜150-200 mm3. Drug/Vehicle therapy was given to tumor volume matched pairs. Docetaxel (3 mg/kg) and cisplatin (3 mg/kg) were given i.p. once a week for 3 weeks. For JIB-04 studies, nude mice were randomized to receive either of 5, 20 or 50 mg/kg doses or vehicle, 3× per week for 2 weeks by gavage in 12.5% cremophor EL, 12.5% DMSO, aqueous suspension.

H1299 T18 xenografts = details: for final tumor weights vs vehicle: GSK-J4 100 mg/kg 10 days, JIB-04 50 mg/kg; for tumor volume vs vehicle: GSK-J4 100 mg/kg every day 10 days, JIB-04 5, 20 or 50 mg/kg 3x per week 2 weeks by gavage
Protocol: as §1, §2

53BP1 foci = assay: Immunofluorescence DSB repair kinetics, 53BP1 foci; assay type: cell-based, Human; details: for 53BP1 foci resolution: H1299 and A549, 4 h pretreatment, then IR
Protocol: NSCLCs were seeded onto Lab-Tek II Chamber Slides (Thermo Fisher) and 24 hours later pretreated with JIB-04 or DMSO for 4 h. Then cells were exposed to a total dose of 2 Gy (γH2AX and 53BP1) or 10 Gy (RAD-51 and DNAPKcs p-T2609) radiation. For knockdown and overexpression experiments H1299 cells were transfected using the Amaxa Nucleofector; program X-005. Specifically, 3×10^6 were transfected with siRNA duplexes targeting JMJD2A, JMJD2B, Jarid1A, Jarid1b, scrambled siRNA (250 nM final concentration) or expression vectors pCMVHA-JMJD2A, pCMVHA-JMJD2B, pCMVHA-Jarid1A, pCMVHA-Jarid1B, PC-2 for 72 hours, followed by quantification of expression or irradiation. Then, cells were fixed in 4% formaldehyde/PBS for 15 min, permeabilized with 0.5% Triton X-100 for 15 min on ice, and blocked with 5% bovine serum albumin in PBS for 1 h. The slides were incubated with an antibody against phospho-Histone γH2AX (1:1000, 3 h at room temperature), 53BP1 (1:500, 3 h at room temperature), Rad-51 (1:500, 48 hs 4° C.) or DNAPKcs p-T2609 (1:500, 48 hs 4° C.). Alexa Fluor 488-conjugated goat anti-Rabbit, […] goat anti-mouse or rhodamine red-conjugated goat anti-mouse secondaries antibodies were used (1:1000, 1 h at room temperature). Slides were mounted in a Vectashield mounting medium containing 4′,6-diamidino-2-phenylindole (DAPI). Cells were analyzed on a Zeiss upright fluorescent microscope.

HCC4017 T5 = assay: MTS cell viability assay, HCC4017 T5 resistant variant vs parental; assay type: cell-based, human; details: HCC4017 T5 vs parental
Protocol: NSCLC lines were treated with paclitaxel+carboplatin combination, given in a ˜2:3 wt/wt ratio, to mirror the clinical dosage values of ˜225 mg/m2 and ˜330 mg/m2, paclitaxel and carboplatin respectively. Note that considering the molecular weights of the two drugs, this translates to approximately a 1 to 3.4 molar ratio. Drugs were given in cycles, following a drug on/drug off treatment scheme. Each cycle consisted of 4-5 days of drug treatment and drug-free culturing for about 1-2 weeks or more to allow the surviving cells to repopulate the plate. […] Untreated parental cells were simultaneously maintained at all times for comparison. Cell viability was assessed in 96-well plates using standard MTS assays (Promega). Treatment duration in MTS assays was 4 days. Drugs were tested in two- or four-fold serial dilutions, totaling 8 different drug concentrations, with 8 replicates per concentration. Response was validated in multiple replicate plates (n≥3).
Cell viability was assessed by standard MTS assays using Promega's CellTiter reagents. Eight drug concentrations given as two- or four-fold dilutions were tested for each chemotherapeutic agent. In addition, each experiment contained eight replicates per concentration and the entire assay was performed in multiple replicates (n≥3).

H3K9me3 at DSBs = assay: γH2AX immunoprecipitation, H3K9me3 at DSBs; assay type: cell-based, Human; details: JIB-04 4 h, IR 20 Gy
Protocol: For Histone demethylase activity determination 10×10^6 H1299 cells were seeded in P150 plates. Next day cells were preincubated with JIB-04 for 4 h and then irradiated with 20 Gy. Media was removed from cells, washed with PBS and fixed with 3% w/v PFA, 2% w/v sucrose in PBS for 1 min. Then cells were washed, scraped into media, pelleted by centrifugation (at 500 g for 2 min) and washed with Phosphatase inhibitor 1×, 1 μM Wortmannin (WM) and protease inhibitors 1× (Sigma). Cell pellets were re-suspended in 2.5× the packed cell volume (PCV) of Nucleosome Preparation Buffer (NPB, 10 mM HEPES [pH 7.9], 10 mM KCl, 1.0 mM CaCl2, 1.5 mM MgCl2, 0.34 M sucrose, 10% glycerol, 1 mM DTT, 0.1% Triton X-100) containing Phosphatase inhibitor, 1 μM Wortmannin (WM) and protease inhibitors (Sigma) and 100 U ml-1 micrococcal nuclease (MNase) and incubated at […] for 45 min (note: WM is required to block in vitro DNA-PK/ATM activation by MNase-produced DSBs). An equal volume of Nucleosome Solubilization Buffer (NSB=Nucleosome preparation buffer+2% [v/v] NP-40, 2% [v/v] Triton X-100, 600 mM NaCl) was then added. Samples were then vortexed, sonicated briefly and centrifuged at 10,000 rpm for 10 min. […] Protein levels on samples were quantified and equal amounts of protein run on 4-12% SDS acrylamide gels. […] Quantification was done using the using ImageJ software (National Institute of Health, NIH)

[2] = from non-linear regression/exponential growth curves

SMILES | final tumor weights vs vehicle ([1]; GSK-J4 100 mg/kg 10 days) | final tumor burden (tumor weights) of combination [1] | tumor growth inhibition of combination [1] | final tumor weights vs vehicle (H1299 T18 xenografts) | tumor volume vs vehicle (H1299 T18 xenografts) | % γH2AX+ cells in tumors (IHC) (H1299 T18 xenografts; mouse, in vivo) | cleaved caspase 3 staining in tumors (IHC) (H1299 T18 xenografts; mouse, in vivo) | 53BP1 foci resolution (53BP1 foci) | fold increased sensitivity vs parental (HCC4017 T5) [fold] | tumor volume vs vehicle ([1]; GSK-J4 100 mg/kg every day 10 days, JIB-04 5, 20 or 50 mg/kg 3x per week 2 weeks by gavage) | change in tumor doubling time [1, 2] [%] | increase in tumor doubling time (H1299 T18 xenografts; [2]) [%] | % Ki67+ cells in tumors (IHC) (H1299 T18 xenografts; mouse, in vivo) | 53BP1 foci formation and resolution (53BP1 foci; HCC-95 cells, 35 nM JIB-04 4 h, 2 Gy) | H3K9me3 at sites of DNA damage marked by γH2AX (H3K9me3 at DSBs)
CCOC(=O)CCNc1cc(N2CCc3ccccc3CC2)nc(-c2ccccn2)n1 [GSK-J4] | no significant drug-induced decrease | significant reduction in final tumor burden compared to either therapy alone | significantly greater tumor growth inhibition than single agents | significant decrease in final tumor weights | significant reduction in average tumor volume | increased the % γH2AX+ cells | focally increased cleaved caspase 3 staining | not observed |  |  |  |  |  |  | 
Clc1ccc(N/N=C(\c2ccccc2)c2ccccn2)nc1 [JIB-04] |  | significant reduction in final tumor burden compared to either therapy alone | significantly greater tumor growth inhibition than single agents | significant decrease in final tumor weights | greater percent reduction in final tumor volumes |  | focally increased cleaved caspase 3 staining | defective | ~3 | significantly reduced tumor burden | < 25 | 69 | reduction of % Ki67+ cells | delayed 53BP1 foci formation and resolution | No changes in H3K9me3
